Assay results published in PMC7367925, “The EU-ToxRisk method documentation, data processing and chemical testing pipeline for the regulatory use of new approach methods” (Archives of Toxicology, 2020).
Read-outs that look alike come from different tables or passages of the source.

How the values were obtained:
[1] = pooled test systems of the NAM panel (all test methods)
[2] = design: method as in Hardman JG 2001; details: known Cmax in man; ref Hardman JG 2001; cited from earlier work
[3] = system: U-2 OS reporter cell lines battery; assay: CALUX reporter gene assay battery as a whole
Androgen receptor = target: T1, Androgen receptor (Homo sapiens, UniProt P10275); format: cell-based; details: 24 h exposure, lowest effect level PC20, reference agonist at EC50, means from 3 assay runs
T1 construct: host or cells: U-2 OS
T1 sequence (P10275 1-920): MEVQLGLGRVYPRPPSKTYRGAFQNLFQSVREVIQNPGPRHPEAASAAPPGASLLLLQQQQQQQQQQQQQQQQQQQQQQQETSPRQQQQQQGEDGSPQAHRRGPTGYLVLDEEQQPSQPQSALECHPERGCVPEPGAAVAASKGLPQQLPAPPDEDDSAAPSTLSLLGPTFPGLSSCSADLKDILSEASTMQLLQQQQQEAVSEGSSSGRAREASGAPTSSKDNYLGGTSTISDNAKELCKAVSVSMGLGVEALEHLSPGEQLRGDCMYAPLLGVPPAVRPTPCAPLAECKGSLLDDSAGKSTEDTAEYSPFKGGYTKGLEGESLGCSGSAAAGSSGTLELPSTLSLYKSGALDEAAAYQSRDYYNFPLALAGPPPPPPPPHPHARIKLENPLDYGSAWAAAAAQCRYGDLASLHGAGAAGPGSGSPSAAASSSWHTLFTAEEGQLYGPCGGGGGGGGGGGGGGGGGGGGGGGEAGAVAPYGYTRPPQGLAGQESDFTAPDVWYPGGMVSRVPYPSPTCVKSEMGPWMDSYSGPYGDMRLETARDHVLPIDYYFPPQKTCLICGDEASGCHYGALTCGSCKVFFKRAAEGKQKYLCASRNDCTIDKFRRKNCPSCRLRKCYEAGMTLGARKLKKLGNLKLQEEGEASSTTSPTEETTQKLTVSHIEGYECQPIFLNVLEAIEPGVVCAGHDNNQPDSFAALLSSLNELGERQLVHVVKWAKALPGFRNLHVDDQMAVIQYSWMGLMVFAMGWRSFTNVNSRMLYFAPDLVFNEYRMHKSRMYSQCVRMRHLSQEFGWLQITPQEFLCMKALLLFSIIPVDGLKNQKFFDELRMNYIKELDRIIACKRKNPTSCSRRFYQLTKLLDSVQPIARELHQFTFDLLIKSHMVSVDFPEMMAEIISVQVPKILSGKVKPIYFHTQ
Procedure: (§1) After 24 h, exposure medium was prepared. […] All samples were tested in triplicates. […] Fig. SM_4. […] Fig. SM_4.
(§2) Supplementary Material SM_4
(§3) Overview of CALUX assays.
(§4) This is defined as the concentration of test compound […]
(§5) for an antagonist assay is a PC20.
(§6) PC = positive control. FI = fold induction. PC10: concentration where test compound causes an activation equal to 10% of the maximum effect (positive control). PC20: concentration where test compound causes […]
(§7) FI=1.5: concentration where test
(§8) (A) exemplary graph of concentration- […]
(§9) receptor antagonism assay with PC20 as lowest-effect-level. (C) exemplary graph for assay with 1.5 fold inductionas lowest effect level. 9

[4] = target: T2, Thyroid hormone receptor beta (Homo sapiens, UniProt P10828); assay: TRb-anti CALUX; format: cell-based; details: 24 h exposure, lowest effect level PC20, reference agonist at EC50, means from 3 assay runs
T2 construct: host or cells: U-2 OS
T2 sequence (P10828 1-461): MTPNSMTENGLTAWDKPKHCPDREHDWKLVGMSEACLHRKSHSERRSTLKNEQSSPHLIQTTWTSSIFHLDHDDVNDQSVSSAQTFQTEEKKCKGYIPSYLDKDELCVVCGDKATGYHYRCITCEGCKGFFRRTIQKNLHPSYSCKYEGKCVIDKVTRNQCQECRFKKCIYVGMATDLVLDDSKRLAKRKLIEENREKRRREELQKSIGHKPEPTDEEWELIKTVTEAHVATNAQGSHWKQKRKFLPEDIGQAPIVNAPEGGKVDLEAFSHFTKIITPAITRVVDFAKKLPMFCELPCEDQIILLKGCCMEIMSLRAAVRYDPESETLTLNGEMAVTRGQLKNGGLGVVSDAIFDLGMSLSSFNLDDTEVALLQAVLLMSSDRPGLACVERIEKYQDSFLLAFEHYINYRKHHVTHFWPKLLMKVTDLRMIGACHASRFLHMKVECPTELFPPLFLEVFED
Procedure: as §1
Cell line Endpoint effect Reference compound […]
Cytotox CALUX Cytoxicity PC20 tributyltinacetate
as §2, §3, §4, §5, §6, §7, §8, §9

U-2 OS cells [5] = assay: Cytotox CALUX; details: for PoD cytotoxicity: 24 h exposure, lowest effect level PC20, means from 3 assay runs
U-2 OS cells [6] = details: human
[7] = system: Endoplasmic reticulum stress; assay: ESRE CALUX; format: cell-based, human; details: 24 h exposure, lowest effect level PC10, means from 3 assay runs
Procedure: as §1, §2, §3, §4, §5, §6, §7, §8, §9

Progesterone receptor = target: T3, Progesterone receptor (Homo sapiens, UniProt P06401); assay: PR-anti CALUX; format: cell-based; details: 24 h exposure, lowest effect level PC20, reference agonist at EC50, means from 3 assay runs
T3 construct: host or cells: U-2 OS
T3 sequence (P06401 1-933): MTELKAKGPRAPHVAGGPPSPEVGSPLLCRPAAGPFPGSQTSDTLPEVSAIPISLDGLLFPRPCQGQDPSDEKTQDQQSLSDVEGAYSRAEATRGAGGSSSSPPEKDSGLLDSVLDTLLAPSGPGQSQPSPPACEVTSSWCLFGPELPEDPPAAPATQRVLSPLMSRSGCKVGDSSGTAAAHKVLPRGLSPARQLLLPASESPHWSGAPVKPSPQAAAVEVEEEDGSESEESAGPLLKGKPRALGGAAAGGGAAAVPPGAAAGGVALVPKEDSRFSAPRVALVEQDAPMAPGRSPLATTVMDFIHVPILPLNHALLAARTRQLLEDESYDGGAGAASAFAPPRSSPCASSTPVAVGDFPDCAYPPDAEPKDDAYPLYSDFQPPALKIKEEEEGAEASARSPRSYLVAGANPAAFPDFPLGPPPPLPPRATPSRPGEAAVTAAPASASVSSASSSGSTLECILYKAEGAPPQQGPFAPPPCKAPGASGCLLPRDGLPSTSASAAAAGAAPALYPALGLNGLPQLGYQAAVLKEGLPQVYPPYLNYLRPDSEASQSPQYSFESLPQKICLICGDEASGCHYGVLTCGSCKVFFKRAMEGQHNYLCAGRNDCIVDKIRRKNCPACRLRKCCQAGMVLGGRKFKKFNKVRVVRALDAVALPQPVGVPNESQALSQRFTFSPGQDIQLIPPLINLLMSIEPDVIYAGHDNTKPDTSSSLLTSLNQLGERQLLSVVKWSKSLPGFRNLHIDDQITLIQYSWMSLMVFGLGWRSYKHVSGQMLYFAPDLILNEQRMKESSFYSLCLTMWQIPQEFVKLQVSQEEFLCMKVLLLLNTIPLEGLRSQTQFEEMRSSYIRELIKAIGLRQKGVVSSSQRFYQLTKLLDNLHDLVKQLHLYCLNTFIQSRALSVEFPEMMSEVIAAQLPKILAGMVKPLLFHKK
Procedure: as §1, §2, §3, §4, §5, §6, §7, §8, §9

Nrf2 (Oxidative stress) = assay: Nrf2 CALUX; format: cell-based, human; details: 24 h exposure, lowest effect level FI=1.5, means from 3 assay runs
Procedure: as §1, §2, §3, §4, §5, §6, §7, §8, §9

Pregnane X receptor = target: T4, Pregnane X receptor (Homo sapiens, UniProt O75469); assay: PXR CALUX; format: cell-based; details: 24 h exposure, lowest effect level PC10, means from 3 assay runs
T4 construct: host or cells: U-2 OS
T4 sequence (O75469 1-434): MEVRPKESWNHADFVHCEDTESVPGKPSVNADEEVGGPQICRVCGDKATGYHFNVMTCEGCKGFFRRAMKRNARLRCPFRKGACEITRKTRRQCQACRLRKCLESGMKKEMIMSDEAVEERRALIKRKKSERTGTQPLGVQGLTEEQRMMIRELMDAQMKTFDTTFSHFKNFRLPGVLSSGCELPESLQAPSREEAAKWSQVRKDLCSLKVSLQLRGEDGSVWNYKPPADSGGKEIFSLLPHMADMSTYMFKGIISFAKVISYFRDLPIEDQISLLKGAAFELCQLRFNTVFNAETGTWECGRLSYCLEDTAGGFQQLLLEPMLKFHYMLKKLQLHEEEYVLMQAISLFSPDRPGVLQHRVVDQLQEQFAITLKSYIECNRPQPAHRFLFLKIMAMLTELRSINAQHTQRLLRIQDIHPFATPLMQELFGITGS
Procedure: as §1, §2, §3, §4, §5, §6, §7, §8, §9

[8] = system: p53-dependent pathway activation / genotoxicity; format: cell-based, human; details: 24 h exposure, lowest effect level FI=1.5, means from 3 assay runs
Procedure: as §1, §2, §3, §4, §5, §6, §7, §8, §9

[9] = all CALUX assays, 13 concentrations, 24 h exposure

CCCCNC(=O)NS(=O)(=O)c1ccc(C)cc1 [Tolbutamide]
viability [1]: 100% | Cmax [2]: 196 µM

Oc1c(Cl)cc(Cl)c(Cl)c1Cc1c(O)c(Cl)cc(Cl)c1Cl [Hexachlorophene]
response profile over the CALUX battery (in words) [3, 9]: only activated nuclear hormone receptor related assays | PoD AR - anta (Androgen receptor): 5.7 -log(M) | PoD TRβ - anta [4]: 6.0 -log(M) | PoD cytotoxicity (U-2 OS cells [5]): 5.5 -log(M)

COc1cc2c(c(OC)c1OC)-c1ccc(OC)c(=O)cc1[C@@H](NC(C)=O)CC2 [Colchicine]
Cmax [2]: 449 µM | cytotoxic concentration (U-2 OS cells [5]): 50 nM | PoD cytotoxicity (U-2 OS cells [5]): 7.3 -log(M)

CCOC(=O)C(C)(C)Oc1ccc(Cl)cc1 [Clofibrate]
response profile over the CALUX battery (in words) [3, 9]: no effect | viability [1]: 100%

CO[C@H]1/C=C/O[C@@]2(C)Oc3c(C)c(O)c4c(O)c(c(/C=N/N5CCN(C)CC5)c(O)c4c3C2=O)NC(=O)/C(C)=C\C=C\[C@H](C)[C@H](O)[C@@H](C)[C@@H](O)[C@@H](C)[C@H](OC(C)=O)[C@@H]1C [Rifampicin]
PoD cytotoxicity (U-2 OS cells [6]): 4.0 | response profile over the CALUX battery (in words) [3]: additionally activated several stress pathway related assays | PoD ESRE [7]: 4.0 -log(M) | PoD PR - anta (Progesterone receptor): 4.8 -log(M) | PoD Nrf2 (Nrf2 (Oxidative stress)): 4.6 -log(M) | PoD PXR - ago (Pregnane X receptor): 7.1 -log(M) | PoD p53 [8]: 4.2 -log(M)

C[n+]1ccc(-c2ccccc2)cc1 [MPP^+, methyl-phenyl-pyridinium]
response profile over the CALUX battery (in words) [3, 9]: no effect
